The nature of this data set: solvent given as SMILES.

Where the note is “in ClCCl”, `[O-][n+]1c(/C=C/c2ccc3ccccc3c2)nc(N2CCOCC2)c2c1CCCC2` registered an absorption maximum of 400 nm.
Regarding `CCN(CC)c1ccc([N+]2=Cc3ccc4c5c(ccc4c3O[B-]2(c2c(F)c(F)c(F)c(F)c2F)c2c(F)c(F)c(F)c(F)c2F)C=[N+](c2ccc(N(CC)CC)cc2)[B-](c2c(F)c(F)c(F)c(F)c2F)(c2c(F)c(F)c(F)c(F)c2F)O5)cc1`, the absorption maximum was found to be 559 nm (in C1CCOC1); 555 nm (in CC#N); 555 nm (in CC(C)=O); 584 nm (in Cc1ccccc1); 589 nm (in ClCCl).
For the molecule `Cc1ccc(-c2nc(-c3cc([N+](=O)[O-])ccc3O)[nH]c2-c2ccc(C)cc2)cc1`, the absorption maximum (in CO) is recorded as 284 nm.
In the case of `CN(C)c1ccc(/C=C/c2cnccn2)cc1`, the absorption maximum (in ClCCl) worked out at 389 nm.
In turn, `Cc1cccn2c1cc1c3ccccc3nc(-c3cccs3)c12` had an absorption maximum (in CS(C)=O) of 398 nm.
On to `CCN(CC)c1ccc2c(c1)oc(=O)c1cnc3c(cnn3-c3ccccc3)c12`, for which, where the note is “in ClCCl”, the absorption maximum is reported as 405 nm.
In turn, `Cc1cccc(NC(=O)c2ccc(N(C)C)cc2)c1` registered an absorption maximum (in C1CCCCC1) of 306 nm, an absorption maximum (in C1CCOC1) of 311 nm, an absorption maximum (in CC#N) of 314 nm and an absorption maximum (in CCOCC) of 306 nm.
`O=Cc1ccc(C#CC(C#Cc2ccc(C=O)o2)=Cc2ccc(C=C(C#Cc3ccc(C=O)o3)C#Cc3ccc(C=O)o3)s2)o1`: where the note is “in ClC(Cl)Cl”, the absorption maximum is 516 nm.
Consider `CC(C)c1cccc(C(C)C)c1N1C(=O)c2cc(Cl)c3c4c(Cl)cc5c6c(cc(Cl)c(c7c(Cl)cc(c2c37)C1=O)c64)C(=O)N(c1c(C(C)C)cccc1C(C)C)C5=O`, for which the absorption maximum (in Cc1ccccc1) turned out to be 523 nm.
As to `CC(C)(C)c1cc(C[n+]2ccc(-c3cc[n+](Cc4cc(C(C)(C)C)cc(C(C)(C)C)c4)cc3)cc2)cc(C(C)(C)C)c1`, for the setting “in CC#N”, the absorption maximum came to 259 nm.
In the case of `CCN(CC)c1ccc2cc3c([o+]c2c1)/C(=C/Nc1ccccc1)CCC3`, the absorption maximum is, setting by setting: (in CCO) 605 nm; (in ClC(Cl)Cl) 616 nm; (in ClCCl) 615 nm.
With `Cn1nc(-c2ccccc2)c2nc3cc(Cl)ccc3nc21`, the absorption maximum amounted to 428 nm (in C1CCCCC1), 429 nm (in C1CCOC1) and 427 nm (in CC#N).
In turn, `F[B-]1(F)n2c(cc3ccc4ccccc4c32)C(c2ccc(I)cc2)=C2C=C3CCc4ccccc4C3=[N+]21` showed an absorption maximum (in ClC(Cl)Cl) of 634 nm.
Regarding `CC(C)(C)c1ccc2oc3nc4oc5ccc(-n6c7ccccc7c(=O)c7ccccc76)cc5c4cc3c2c1`, where the note is “in ClC(Cl)Cl”, the absorption maximum was 396 nm.
With `CC1=N/C(=C\c2ccccc2N(C)C)C(=O)N1C`, the absorption maximum is, setting by setting: (in C1CCCCC1) 395 nm; (in C1CCOC1) 395 nm; (in CC#N) 396 nm; (in CO) 398 nm; (in CS(C)=O) 398 nm; (in ClCCl) 396 nm. For the same molecule, the absorption maximum (in O) came out at 346 nm.
`COc1ccc(-c2cc3ccccc3p2-c2ccccc2)cc1` (stereo not given) returned an absorption maximum (in C1CCOC1) of 340 nm.
As for `CN1C(C(=O)Nc2ccccn2)=C(O)c2sccc2S1(=O)=O`, the absorption maximum is 344 nm (in C1COCCO1); 355 nm (in CC#N); 350 nm (in CCCCO); 350 nm (in CCCO); 351 nm (in CCO); 342 nm (in CCOC(C)=O). In addition, the absorption maximum (in CO) is given as 354 nm.
For the molecule `c1ccc2c(c1)ccc1ccc3c(c12)-c1c(ccc2ccc4ccccc4c12)C3`, the absorption maximum (in ClCCl) stood at 400 nm.
Turning to `CCCCCC(CC)C1(C(CC)CCCCC)c2ccccc2-c2ccc(C#Cc3cc(C#Cc4ccc5c(c4)C(C(CC)CCCCC)(C(CC)CCCCC)c4ccccc4-5)c4ccc5c(C#Cc6ccc7c(c6)C(C(CC)CCCCC)(C(CC)CCCCC)c6ccccc6-7)cc(C#Cc6ccc7c(c6)C(C(CC)CCCCC)(C(CC)CCCCC)c6ccccc6-7)c6ccc3c4c65)cc21` (stereo not given), the absorption maximum by setting is: (in C1CCCCC1) 486 nm; (in C1CCOC1) 492 nm; (in CCOC(C)=O) 488 nm; (in CN(C)C=O) 496 nm; (in Cc1ccccc1) 488 nm; (in ClC(Cl)Cl) 491 nm. Moreover, the absorption maximum (in ClCCl) was 492 nm.
Consider `CN(C)c1ccc2c(-c3ccc(N)cc3C(=O)[O-])c3ccc(=[N+](C)C)cc-3oc2c1`, for which the absorption maximum is on record as 533 nm (in CCO) and 544 nm (in O).
As to `Cn1nc(-c2ccc(C#N)cc2)cc1-c1ccccc1`, the absorption maximum (in ClCCl) is given as 282 nm.
Same read-out and setting: as for `CCCCCCCCCCOc1ccc(C#Cc2cc3c(C#Cc4ccc(OCCCCCCCCCC)cc4)c(C#Cc4ccc(OCCCCCCCCCC)cc4)c4cc(C#Cc5ccc(OCCCCCCCCCC)cc5)cc5c(C#Cc6ccc(OCCCCCCCCCC)cc6)c(C#Cc6ccc(OCCCCCCCCCC)cc6)c(c2)c3c45)cc1`, the figure is 421 nm; as for `CN(C)c1ccc(C2=Nc3ccc4c(C(F)(F)F)cc(C(F)(F)F)nc4[n+]3[B-](F)(F)O2)cc1`, 480 nm.
Where the note is “in Cc1ccccc1”, `COc1ccc(C2=C(Br)C(c3ccccc3)=[N+]3C2=Nc2c(-c4ccc(OC)cc4)c(Br)c(-c4ccccc4)n2[B-]3(F)F)cc1` came in with an absorption maximum of 654 nm.
For the molecule `COc1ccc2c(c1)CCC1=C(C#Cc3ccc(Cl)cc3)O[B-](F)(F)[O+]=C12`, the absorption maximum (in ClCCl) amounted to 445 nm.
`F[B-]1(F)OC(c2ccccc2)=Cc2c3ccccc3cc[n+]21` yielded an absorption maximum (in ClC(Cl)Cl) of 400 nm.
For the molecule `CC1(C)c2ccccc2N(c2ccc3c(c2)c2cc(N4c5ccccc5C(C)(C)c5ccccc54)ccc2c2nc(C#N)c(C#N)nc32)c2ccccc21`, for the setting “in Cc1ccccc1”, the absorption maximum is reported as 464 nm.
With `CCNc1cc2oc(=O)cc(C)c2cc1C`, where the note is “in CC#N”, the absorption maximum was 354 nm.
`c1ccc(-c2ccc3c(c2)c2cc(-c4ccccc4)ccc2n3-c2ccc3c(c2)c2cc(-n4c5ccc(-c6ccccc6)cc5c5cc(-c6ccccc6)ccc54)ccc2n3-c2ccc(-c3nc(-c4ccccc4)nc(-c4ccccc4)n3)cc2)cc1` gave an absorption maximum (in Cc1ccccc1) of 362 nm.
In turn, `c1ccc(C2=C(c3ccccc3)c3cccc4c5c(cc(c34)O2)=NC2CCCCC2N=5)cc1` (stereo not given) returned an absorption maximum (in ClCCl) of 431 nm.
As for `COC(=O)c1ccc2ccc3cccc4ccc1c2c34`, the absorption maximum runs as follows: (in C1CCOC1) 379 nm; (in CC#N) 379 nm; (in CCCCCC) 379 nm; (in CCO) 380 nm; (in CN(C)C=O) 380 nm; (in CO) 379 nm. Also, the absorption maximum is, setting by setting: (in Cc1ccccc1) 381 nm; (in ClCCl) 379 nm.
The molecule `F[B-]1(F)C2=C(C=c3c4cccc5cccc(c54)n31)c1cccc3ccc[n+]2c13` displayed an absorption maximum (in CS(C)=O) of 622 nm.
Molecule `CC(C)(C)c1cccc2c(O)cccc12` gave an absorption maximum (in O) of 296 nm.
Consider `CC(=O)c1nc(-c2ccc(C)cc2)oc1C`, for which the absorption maximum is 271 nm (in CC#N); 272 nm (in CCCCCC); 271 nm (in CCO); 273 nm (in CCOC(C)=O); 271 nm (in CCOCC); 271 nm (in ClCCl).
As to `CCCCCCCCN1C(=O)c2ccc3c4c(-c5ccc(N(c6ccccc6)c6ccccc6)cc5)cc5c6c(cc(-c7ccc(N(c8ccccc8)c8ccccc8)cc7)c(c7ccc(c2c37)C1=O)c64)C(=O)N(CCCCCCCC)C5=O`, the absorption maximum (in ClC(Cl)Cl) worked out at 606 nm.
In the case of `COC(=O)c1c(C(=O)OC)c2ccc(-c3ccccc3)nn2c1C`, where the note is “in C1CCCCC1”, the absorption maximum is recorded as 397.6 nm.
Consider `O=P1(c2ccccc2)C(c2ccc(N(c3ccccc3)c3ccccc3)cc2)=Cc2ccccc21` (stereo not given), for which the absorption maximum reads like this: (in C1CCOC1) 408 nm; (in CC#N) 407 nm; (in CN(C)C=O) 410 nm; (in Cc1ccccc1) 413 nm; (in ClC(Cl)Cl) 418 nm; (in ClCCl) 415 nm.
The molecule `CCCCCCCCOc1ccc(C2=C3C(C)=CC(C)=[N+]3[B-](F)(F)n3c(C)cc(C)c32)cc1` yielded an absorption maximum (in ClCCl) of 500 nm.
The same measure, in the same setting: with `CCCCN(CCCC)c1ccc2c(c1)C#CC#Cc1cc(C(F)(F)F)ccc1C#Cc1cc(c3cc1C#Cc1ccc(C(F)(F)F)cc1C#CC#Cc1cc(N(CCCC)CCCC)ccc1C#C3)C#C2` the figure was 474 nm; with `CC1=C(C#Cc2ccc([Si](c3ccccc3)(c3ccccc3)c3ccccc3)cc2)C(C)=[N+]2C1=C(c1ccccc1)c1c(C)c(C#Cc3ccc([Si](c4ccccc4)(c4ccccc4)c4ccccc4)cc3)c(C)n1[B-]2(F)F`, 575 nm; with `CCCCn1c(-c2ccc(-c3nnc(-c4ccccc4)o3)cc2)nc(-c2ccccc2)c1-c1ccccc1`, 339 nm.
The molecule `COc1cc2c(c(OC)c1OC)c1ccc3cccc4c5cccc6oc(=O)c2c(c65)c1c34` registered an absorption maximum (in C1CCOC1) of 417 nm.
In the case of `CCc1c(C)[nH]c(C2=[N+]3C(=Cc4c(C)c(CC)c(/C=C/c5ccc(N(C)C)cc5)n4[B-]3(F)F)c3ccccc32)c1C`, the absorption maximum by setting is: (in C1CCOC1) 720 nm; (in CC#N) 713 nm; (in CCCCCC) 719 nm; (in CO) 712 nm; (in Cc1ccccc1) 730 nm; (in ClCCl) 725 nm.
As to `CCOC(=O)CN(CC(=O)OCC)c1ccc(-c2cc(-c3ccncc3)nc(-c3ccncc3)c2)cc1`, the absorption maximum is listed as 334 nm (in CC#N); 334 nm (in CCOC(C)=O); 342 nm (in CN(C)C=O); 344 nm (in CS(C)=O); 332 nm (in c1ccccc1).

For the origin of these results see the Deep4Chem optical property database.
